We go through 24 compounds from PMC8493129, “Design and Synthesis of New Quinoxaline Derivatives as Potential Histone Deacetylase Inhibitors Targeting Hepatocellular Carcinoma: In Silico, In Vitro, and SAR Studies” (Frontiers in Chemistry, 2021).

A word on the IC50: it is the point on the concentration scale where inhibition reaches its midpoint. Low readings indicate higher potency, high ones lower potency.

The test system of data set [1] is HepG-2 liver cancer cell line. The experiment in a line: Anti-proliferative activity (MTT / SRB assay), HepG-2. The conditions noted are these: Homo sapiens, HepG2; HepG-2; mean of three separate experiments. It is filed as cell-based, human. As for the experimental part:
(§1) The new quinoxaline derivatives of the five series: 6, 7, 8, 9, and 10 were evaluated for their potential anti-proliferative activity against two liver cancer cell lines (HepG-2 and HuH-7) obtained from the American Type Culture Collection.
On the technique in general: The SRB assay estimates cell density from bound dye.

The subject of data set [2] is HuH-7 liver cancer cell line. The experiment in a line: Anti-proliferative activity (MTT / SRB assay), HuH-7. The format is cell-based, human. The conditions noted are these: Homo sapiens, mean of three separate experiments. As for the experimental part: as §1
In the next data set the target is T1, HDAC6 (Homo sapiens, UniProt Q9UBN7).
T1 sequence (Q9UBN7 1-1215): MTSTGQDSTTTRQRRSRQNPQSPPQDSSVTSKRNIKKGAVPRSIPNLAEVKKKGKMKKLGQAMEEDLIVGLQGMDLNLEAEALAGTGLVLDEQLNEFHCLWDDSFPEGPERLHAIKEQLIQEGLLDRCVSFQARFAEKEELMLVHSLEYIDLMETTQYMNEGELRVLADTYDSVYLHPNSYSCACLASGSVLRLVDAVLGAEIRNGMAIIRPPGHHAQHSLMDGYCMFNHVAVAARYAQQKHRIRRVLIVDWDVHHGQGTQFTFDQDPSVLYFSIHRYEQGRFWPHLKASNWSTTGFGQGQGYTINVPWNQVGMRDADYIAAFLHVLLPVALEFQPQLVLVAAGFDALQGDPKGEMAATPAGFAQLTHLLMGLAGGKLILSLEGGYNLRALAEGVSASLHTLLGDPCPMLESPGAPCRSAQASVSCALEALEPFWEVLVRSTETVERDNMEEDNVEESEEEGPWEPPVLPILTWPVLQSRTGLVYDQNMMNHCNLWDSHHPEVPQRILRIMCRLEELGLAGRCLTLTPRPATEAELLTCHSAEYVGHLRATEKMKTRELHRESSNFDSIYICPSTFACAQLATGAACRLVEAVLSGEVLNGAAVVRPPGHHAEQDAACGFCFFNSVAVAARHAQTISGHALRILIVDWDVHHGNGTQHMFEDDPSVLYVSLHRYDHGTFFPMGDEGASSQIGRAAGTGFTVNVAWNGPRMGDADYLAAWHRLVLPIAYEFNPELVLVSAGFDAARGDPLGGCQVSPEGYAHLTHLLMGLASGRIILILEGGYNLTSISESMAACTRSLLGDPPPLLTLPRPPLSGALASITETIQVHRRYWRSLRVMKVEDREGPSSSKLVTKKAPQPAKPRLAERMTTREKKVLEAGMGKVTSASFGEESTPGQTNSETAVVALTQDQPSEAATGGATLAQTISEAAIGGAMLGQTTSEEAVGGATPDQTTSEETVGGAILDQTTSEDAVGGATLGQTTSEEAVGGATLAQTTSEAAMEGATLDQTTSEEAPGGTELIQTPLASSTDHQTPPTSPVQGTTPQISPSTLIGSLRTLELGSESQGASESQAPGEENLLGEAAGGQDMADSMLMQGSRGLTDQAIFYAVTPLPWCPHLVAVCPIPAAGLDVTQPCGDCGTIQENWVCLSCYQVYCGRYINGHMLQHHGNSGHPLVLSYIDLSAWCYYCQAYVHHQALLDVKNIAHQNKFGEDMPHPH
The experiment in a line: Histone deacetylase inhibition, homogeneous fluorescence release assay.

Another data set concerns the target HDAC4 (Homo sapiens, UniProt P56524). The data set is described as above.
Another data set concerns Bcl-2. The experiment in a line: Anti-apoptotic marker level (Bcl-2) in HepG-2 cells. The format is cell-based, human. Particulars: control 5.048 pg/ml. As for the experimental part:
(§2) The method was performed in detail as previously explained ([Eliaa et al., 2020]).

Another data set deals with HDAC1 (Homo sapiens, UniProt Q13547). Put plainly: Histone deacetylase inhibition, homogeneous fluorescence release assay.
The next data set has as its system Bax. Put plainly: Apoptotic marker level (Bax) in HepG-2 cells. It is filed as cell-based, human. The conditions noted are these: control 24.37 pg/ml. As to the method: as §2
In data set [3] the test system is HepG-2 and HuH-7 liver cancer cell lines. Put plainly: Anti-proliferative activity, statements covering both cell lines. The format is cell-based, human. Particulars: class by IC50 on HepG-2 and HuH-7. As for the experimental part:
as §1

Sequence of HDAC1 (Q13547 whole entry): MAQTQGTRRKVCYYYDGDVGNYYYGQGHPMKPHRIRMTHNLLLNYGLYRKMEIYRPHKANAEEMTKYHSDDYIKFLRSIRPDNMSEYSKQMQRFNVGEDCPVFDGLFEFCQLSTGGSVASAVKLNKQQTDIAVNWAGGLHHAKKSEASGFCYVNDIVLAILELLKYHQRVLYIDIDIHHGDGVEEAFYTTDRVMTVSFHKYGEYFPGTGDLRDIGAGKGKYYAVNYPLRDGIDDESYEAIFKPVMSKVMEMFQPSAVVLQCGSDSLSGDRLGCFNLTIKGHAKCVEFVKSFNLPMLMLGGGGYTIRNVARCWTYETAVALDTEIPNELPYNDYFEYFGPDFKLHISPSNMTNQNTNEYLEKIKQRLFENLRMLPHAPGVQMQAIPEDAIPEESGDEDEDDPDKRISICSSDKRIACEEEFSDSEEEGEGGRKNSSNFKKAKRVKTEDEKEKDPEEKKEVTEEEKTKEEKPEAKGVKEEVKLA
Sequence of HDAC4 (P56524 whole entry): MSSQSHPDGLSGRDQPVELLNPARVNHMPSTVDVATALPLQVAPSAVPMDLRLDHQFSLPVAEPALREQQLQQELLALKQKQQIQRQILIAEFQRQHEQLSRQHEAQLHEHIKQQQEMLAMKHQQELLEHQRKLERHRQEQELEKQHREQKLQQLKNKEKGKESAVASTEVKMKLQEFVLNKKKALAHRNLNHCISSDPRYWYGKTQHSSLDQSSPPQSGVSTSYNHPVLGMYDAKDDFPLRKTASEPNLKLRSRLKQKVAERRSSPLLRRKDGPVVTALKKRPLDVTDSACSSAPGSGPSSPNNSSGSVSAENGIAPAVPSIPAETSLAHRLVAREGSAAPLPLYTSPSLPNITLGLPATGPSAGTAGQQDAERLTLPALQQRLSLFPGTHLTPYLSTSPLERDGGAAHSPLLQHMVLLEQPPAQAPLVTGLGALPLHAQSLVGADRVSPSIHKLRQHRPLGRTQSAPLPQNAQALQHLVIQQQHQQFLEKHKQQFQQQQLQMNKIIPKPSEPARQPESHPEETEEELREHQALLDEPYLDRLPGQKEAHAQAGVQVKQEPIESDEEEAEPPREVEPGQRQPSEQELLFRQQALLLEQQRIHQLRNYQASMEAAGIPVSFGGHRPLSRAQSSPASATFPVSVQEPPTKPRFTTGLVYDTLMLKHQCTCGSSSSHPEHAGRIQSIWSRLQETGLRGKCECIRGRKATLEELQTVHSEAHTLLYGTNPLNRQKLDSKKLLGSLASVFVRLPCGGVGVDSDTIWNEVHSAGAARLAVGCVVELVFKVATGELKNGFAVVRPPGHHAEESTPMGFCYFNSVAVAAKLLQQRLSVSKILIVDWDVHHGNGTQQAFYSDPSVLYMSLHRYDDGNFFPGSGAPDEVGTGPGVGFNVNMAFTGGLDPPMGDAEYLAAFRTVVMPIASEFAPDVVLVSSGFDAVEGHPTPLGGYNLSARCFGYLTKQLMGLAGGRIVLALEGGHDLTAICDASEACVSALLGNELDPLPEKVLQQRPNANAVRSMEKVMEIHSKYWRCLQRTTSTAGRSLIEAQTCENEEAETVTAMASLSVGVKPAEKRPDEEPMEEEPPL

Take `CC(=NNc1nc2ccccc2nc1Cl)c1ccccc1` [Compound 7 a, 2-Chloro-3-(2-(1-phenylethylidene)hydrazinyl)quinoxaline]: the IC50 in data set [1] is 28.5 µM; in data set [2], 37.1 µM.
On the same counts, the results for `COc1nc2ccccc2nc1NN=Cc1c(Cl)cccc1Cl` [Compound 10 c, 2-(2-(2,6-Dichlorobenzylidene)hydrazinyl)-3-methoxyquinoxaline] are 60.5 µM and 65.3 µM.
For `COc1nc2ccccc2nc1NN=Cc1ccc([N+](=O)[O-])cc1` [Compound 10 g, 2-Methoxy-3-(2-(4-nitrobenzylidene)hydrazinyl)quinoxaline], in that order: 13 µM and 19.1 µM.
For `COc1cccc2c1C(=O)c1c(O)c3c(c(O)c1C2=O)C[C@@](O)(C(=O)CO)C[C@@H]3O[C@H]1C[C@H](N)[C@H](O)[C@H](C)O1` [Doxorubicin, reference compound], in that order: 8.25 µM and 9.2 ± 0.65 µM.
Consider `COc1nc2ccccc2nc1NN=Cc1ccccc1O` [Compound 10 h, 2-((2-(3-Methoxyquinoxalin-2-yl)hydrazono)methyl)phenol], for which the concentration for half-maximal inhibition (IC50) was 7.21 µM at HDAC6; 3.15 µM at HDAC4; 5.56 µM in data set [1]; 6.72 µM in data set [2]; 3.54 µM on HDAC1. In addition, the “Bcl-2” value in the data set on Bcl-2 stood at 2.673 pg/mL. In the data set on Bax, the “Bax” value was found to be 205.4 pg/mL.
Turning to `COc1nc2ccccc2nc1NN=Cc1ccc(Cl)cc1` [Compound 10 a, 2-(2-(4-Chlorobenzylidene)hydrazinyl)-3-methoxyquinoxaline], the IC50 in data set [1] was 53.9 µM; in data set [2], 57.8 µM.
On the same counts, the results for `COc1ccc(C=NNc2nc3ccccc3nc2OC)cc1OC` [Compound 10 e, 2-(2-(3,4-Dimethoxybenzylidene)hydrazinyl)-3-methoxyquinoxaline] are 55.7 µM and 50.6 µM.
Regarding `O=C1Nc2ccccc2/C1=N\Nc1nc2ccccc2nc1Cl` [Compound 9, 2-(2-(3-Chloroquinoxalin-2-yl)hydrazono)indolein-3-one], the figures for the IC50 in data set [1] and in data set [2] were 11.6 µM and 16.4 µM, respectively. Besides, the “cytotoxic (anti-proliferative) activity class” value in data set [3] is given as “strong (11–20 (strong))”.
Take `COc1ccccc1C=NNc1nc2ccccc2nc1Cl` [Compound 6 f, 2-Chloro-3-(2-(2-methoxybenzylidene)hydrazinyl)quinoxaline]: the IC50 stood at 5.32 µM on HDAC6; 3.44 µM against HDAC4; 6.63 µM in data set [1]; 8.52 µM in data set [2]; 3.29 µM on HDAC1. For the same compound, the “Bcl-2” value in the data set with Bcl-2 is 2.705 pg/mL. The “Bax” value in the data set with Bax amounted to 185.7 pg/mL.
In the case of `COc1nc2ccccc2nc1NN=Cc1c(O)ccc2ccccc12` [Compound 11, 1-((2-(3-Methoxyquinoxalin-2-yl)hydrazono)methyl)naphthalen-2-ol], the figures for the IC50 in data set [1] and in data set [2] were 18.5 µM and 20.3 µM, respectively. Moreover, the “cytotoxic (anti-proliferative) activity class” value in data set [3] was “strong (11–20 (strong))”.
Consider `COc1cc(C=NNc2nc3ccccc3nc2Cl)cc(OC)c1OC` [Compound 6 h, 2-Chloro-3-(2-(3,4,5-trimethoxybenzylidene)hydrazinyl)quinoxaline], for which the IC50 amounted to 11.8 µM in data set [1] and 14.7 µM in data set [2].
For `Clc1ccccc1C=NNc1nc2ccccc2nc1Cl` [Compound 6 b, 2-Chloro-3-(2-(2-chlorobenzylidene)hydrazinyl)quinoxaline], in that order: 15.8 µM and 18.7 µM.
Consider `COc1ccc(C=NNc2nc3ccccc3nc2Cl)cc1OC` [Compound 6 g, 2-Chloro-3-(2-(3,4-dimethoxybenzylidene)hydrazinyl)quinoxaline], for which the IC50 against HDAC6 stood at 3.81 µM; on HDAC4, 1.64 µM; in data set [1], 2.16 µM; in data set [2] it was 3.05 µM; at HDAC1, 2.17 µM. In the data set with Bcl-2, the “Bcl-2” value was determined as 1.687 pg/mL. For the same compound, the “Bax” value in the data set on Bax came out at 247.5 pg/mL.
On to `O=[N+]([O-])c1ccc(C=NNc2nc3ccccc3nc2Cl)cc1` [Compound 6 j, 2-Chloro-3-(2-(4-nitrobenzylidene)hydrazinyl)quinoxaline], for which the IC50 in data set [1] came out at 15.9 µM; in data set [2] it was 25.8 µM.
Turning to `CN(C)c1ccc(C=NNc2nc3ccccc3nc2Cl)cc1` [Compound 6 l, 4-((2-(3-Chloroquinoxalin-2-yl)hydrazono)methyl)-N,N-dimethylaniline], the IC50 came to 4.09 µM on HDAC6; 2.79 µM against HDAC4; 5.39 µM in data set [1]; 9.27 µM in data set [2]; 3.29 µM on HDAC1. In addition, in the data set with Bcl-2, the “Bcl-2” value is 2.519 pg/mL. The “Bax” value in the data set with Bax was 219.7 pg/mL.
Regarding `COc1cc(C=NNc2nc3ccccc3nc2OC)cc(OC)c1OC` [Compound 10 f, 2-Methoxy-3-(2-(3,4,5-trimethoxybenzylidene)hydrazinyl)quinoxaline], the results for the IC50 in data set [1] and in data set [2] were 56.9 µM and 48.8 µM, respectively.
On to `COc1nc2ccccc2nc1NN=Cc1ccc(Cl)cc1Cl` [Compound 10 b, 2-(2-(2,4-Dichlorobenzylidene)hydrazinyl)-3-methoxyquinoxaline], for which the 50% inhibitory concentration (IC50) in data set [1] was 32.1 µM; in data set [2], 35.2 µM.
For `COc1ccccc1C=NNc1nc2ccccc2nc1OC` [Compound 10 d, 2-Methoxy-3-(2-(2-methoxybenzylidene)hydrazinyl)quinoxaline], in that order: 28.6 µM and 27.3 µM.
In the case of `O=[N+]([O-])c1cccc(C=NNc2nc3ccccc3nc2Cl)c1` [Compound 6 i, 2-Chloro-3-(2-(3-nitrobenzylidene)hydrazinyl)quinoxaline], the IC50 in data set [1] came to 63.9 µM; in data set [2], 65.7 µM.
In the case of `Clc1ccc(C=NNc2nc3ccccc3nc2Cl)c(Cl)c1` [Compound 6 d, 2-Chloro-3-(2-(2,4-dichlorobenzylidene)hydrazinyl)quinoxaline], the IC50 stood at 4.28 µM at HDAC6; 3.25 µM against HDAC4; 6.16 µM in data set [1]; 9.47 µM in data set [2]; 3.52 µM against HDAC1. Besides, in the data set on Bcl-2, the “Bcl-2” value came to 2.711 pg/mL. Also, in the data set with Bax, the “Bax” value was 179.2 pg/mL.
As to `Oc1ccccc1C=NNc1nc2ccccc2nc1Cl` [Compound 6 k, 2-((2-(3-Chloroquinoxalin-2-yl)hydrazono)methyl)phenol], the IC50 against HDAC6 stood at 6.29 µM; against HDAC4, 3.81 µM; in data set [1], 7.71 µM; in data set [2], 6.52 µM; at HDAC1, 4.18 µM. Besides, the “Bcl-2” value in the data set with Bcl-2 worked out at 2.914 pg/mL. Moreover, the “Bax” value in the data set on Bax worked out at 164.3 pg/mL.
`COc1nc2ccccc2nc1NN=Cc1ccc(N(C)C)cc1` [Compound 10 i, 4-((2-(3-Methoxyquinoxalin-2-yl)hydrazono)methyl)-N,N-dimethylaniline]: the results for the IC50 in data set [1] and in data set [2] were 23 µM and 22.7 µM, respectively.
For `Clc1nc2ccccc2nc1NN=Cc1ccccc1` [Compound 6 a, 2-(2-Benzylidenehydrazinyl)-3-chloroquinoxaline], in that order: 14.3 µM and 18.2 µM.
On the same counts, the results for `Clc1cccc(Cl)c1C=NNc1nc2ccccc2nc1Cl` [Compound 6 e, 2-Chloro-3-(2-(2,6-dichlorobenzylidene)hydrazinyl)quinoxaline] are 13.5 µM and 17.5 µM.
